Assay results published in article PMC6874530, “Structural analysis identifies an escape route from the adverse lipogenic effects of liver X receptor ligands” (Communications Biology, 2019).
Where two headings read alike, the source gives them in different places.

Legend:
LXRα = biological target: T1, LXRα (Homo sapiens, UniProt Q13133); experiment: Gal4 one hybrid reporter gene (transactivation) assay in U2OS cells, LXRα; assay type: cell-based
T1 construct: expression vectors pSG5-Gal4-LXRα LBD or pSG5-Gal4-LXRβ LBD; expressed in transfected cells; host or cells: U2OS osteosarcoma cells
T1 sequence (Q13133 209-447 limits assumed): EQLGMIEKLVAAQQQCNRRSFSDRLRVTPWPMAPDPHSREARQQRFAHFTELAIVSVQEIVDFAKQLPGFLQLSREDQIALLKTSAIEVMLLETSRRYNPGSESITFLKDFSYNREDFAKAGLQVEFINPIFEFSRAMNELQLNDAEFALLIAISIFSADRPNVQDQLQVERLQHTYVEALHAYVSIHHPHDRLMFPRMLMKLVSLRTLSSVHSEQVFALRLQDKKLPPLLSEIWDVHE
Procedure: Transactivation assays were performed in U2OS osteosarcoma cells (ATCC, USA). […] Ligands were added at ten different concentrations 2 h post transfection and the luciferase activity was measured after 40 h.

Abca1 mRNA in intestine = experiment: intestinal Abca1 mRNA induction in C57BL/6 mice (Emax model); assay type: in vivo, mouse; details: for ED50: Mus musculus
Procedure: All procedures involving animals were conducted in accordance with accepted standards of good animal practice and approved by the respective local animal ethics committees (Gothenburg region Local Ethics Review Committee on Animal experiments and University of Virginia Animal Care and Use Committee). Male C57BL/6JOlaHsd mice were retrieved from Harlan Laboratories (Horst, The Netherlands) around 7 weeks of age. In the studies with BMS-852907, male 8-week C57BL/6J mice (Jackson Laboratories) were used. Mice were given ad libitum access to water and standard rodent chow during the studies.
Solid compounds were solubilized in PEG400/Ethanol/Solutol/Water solution (36.3/9.1/4.6/50%). Compounds were given daily by oral gavage, 5 ml kg^−1, at doses ranging from 0.1 to 100 μmol kg^−1 of body weight for 4 days. Animals were terminated 3 h after the last dose.
(§1) At termination, the whole-blood volume was drawn from isoflurane-anesthetized mice via an incision in the carotid artery into EDTA blood tubes (S-Monovette®, EDTA KE/1.3 mL, Sarstedt, Nümbrecht, Germany or BD Microtainers®, Benton, Dickinson and Company, Franklin Lakes, New Jersey, USA). Blood samples were placed on ice and centrifuged within an hour (15 min, 2500 × g, 4 °C or 5 min, 16000 × g, 4 °C). The plasma was then dispensed in separate tubes and kept at −80 °C for later analysis of compound concentration and TG levels. For the analysis of intestinal Abca1 transcript levels, a 3–5-mm long segment of the duodenum was excised and cleared from any gut contents. Tissues were instantly snap frozen in liquid nitrogen and stored at −80 °C.
Snap-frozen intestinal tissues were quickly disrupted in QIAzol® (Qiagen, Hilden, Germany) or PureZOL™ (Bio-Rad Laboratories, Hercules, California, USA) by using a bead tissue homogenizer. Lysates were mixed with chloroform and centrifuged at 6000 × g for 15 min at 4 °C. Total RNA was purified from the upper aqueous phase on the ABI PRISM™ 6100 Nucleic Acid PrepStation (Applied Biosystems, Foster City, USA) or by using the RNeasy kit® (QIAGEN Sciences Inc., Germantown, Maryland, USA) including on-column DNase treatment by using the respective manufacturer’s protocol and reagents. Concentration of total RNA was determined on a NanoDrop™ ND-100 Spectrophotometer (Saveen Werner, Lögstrup, Sweden). The RNA templates were transferred to cDNA by reverse transcription by using the High-Capacity cDNA Reverse Transcription Kit (Applied Biosystems, Foster City, USA) according to the manufacturer’s protocol. Mouse ATP-binding cassette subfamily A member 1 (Abca1) was analyzed by using the forward primer 5′-[…]-3′, reverse primer 5′-[…]-3′, and the dual-labeled probe 5′-6FAM-[…]-TAMRA-3′. Mouse ribosomal protein large P0 (Rplp0, 36b4) was analyzed by using the forward primer 5′-[…]-3′, reverse primer 5′-[…]-3′, and the FAM-labeled probe 5′-[…]-TAMRA-3′. In the study with BMS-852907, RT-qPCR reactions were carried out in separate triplicate wells for Abca1 and Rplp0, respectively, by using 20 ng of cDNA template, 385 nM of the above-mentioned primers, and iQ™ SYBR Green Supermix (Bio-Rad, Hercules, California, USA) on a Bio-Rad MyiQ instrument (Bio-Rad, Hercules, California, USA). In the other studies, 400 nM Abca1 forward and reverse primers, 200 nM Abca1 probe, 200 nM Rplp0 forward and reverse primers, and 100 nM Rplp0 probe were mixed with 15 ng of cDNA template and TaqMan™ Gene Expression Master Mix (Applied Biosystems, Foster City, USA). The RT-qPCR reactions were performed on a 7500 Real-time PCR system (Applied Biosystems, Foster City, USA). Cycle threshold values (Ct) were retrieved from the instrument software. Relative changes in mRNA expression were calculated by using the comparative cycle method (2^−ΔΔCt). […]

plasma triglycerides = experiment: plasma TG induction in C57BL/6 mice vs plasma compound concentration (log-linear model); assay type: in vivo, mouse
Procedure: Male C57BL/6JOlaHsd mice were retrieved from Harlan Laboratories (Horst, The Netherlands) around 7 weeks of age. […] Mice were given ad libitum access to water and standard rodent chow during the studies.
Compounds were given daily by oral gavage, 5 ml kg^−1, at doses ranging from 0.1 to 100 μmol kg^−1 of body weight for 4 days. Animals were terminated 3 h after the last dose.
as §1
Plasma triglyceride levels were analyzed by using the Triglycerides/Glycerol Blanked reagent kit (Roche Diagnostics GMBH, Mannheim, Germany). Samples were measured on an ABX Pentra 400 instrument (Horiba Medical, Irvine, California, USA) or Cobas Mira plus instrument (Roche Diagnostics Corporation, Indianapolis, USA). […] Absorbance was measured by using a Tecan Infinite M200 plate reader (Tecan Austria GmbH, Salzburg, Austria).
About 25 µL of plasma was precipitated with 150 µL of cold acetonitrile containing 0.2% formic acid. […] Sample analysis was performed by using a reversed-phase high-pressure liquid chromatography system coupled to a Quattro Ultima triple-quadrupole mass spectrometer (Waters, UK). A rapid 2-min 4–90% (vol/vol) acetonitrile (containing 0.2% formic acid) gradient was used for chromatographic separation.
To rank the compounds, the drug concentration (C2) needed to generate a twofold increase in plasma TG was estimated by rearranging Eq. (2):3 C2=exp^2fold−BL−1/m^1/γ

LXRβ LBD = biological target: T2, LXRβ LBD (Homo sapiens, UniProt P55055); experiment: biochemical; details: Receptor-binding affinity pKi LXRβ, value (SD, n independent experiments)
T2 sequence (P55055 215-460 limits assumed): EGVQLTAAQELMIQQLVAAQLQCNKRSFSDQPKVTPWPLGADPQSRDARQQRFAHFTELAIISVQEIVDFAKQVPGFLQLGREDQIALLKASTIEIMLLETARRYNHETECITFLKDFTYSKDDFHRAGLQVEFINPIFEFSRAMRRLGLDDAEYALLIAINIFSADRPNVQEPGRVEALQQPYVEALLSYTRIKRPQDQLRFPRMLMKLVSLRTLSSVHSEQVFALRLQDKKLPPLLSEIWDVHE
Source text: The compounds were run in triplicate (binding assay) or in quadruplicate (transactivation assay). Standard deviations are indicated for individual experiments run more than once.

For O=C(O)Cc1ccc(CNC(=O)[C@@H]2Cc3ccccc3N2S(=O)(=O)c2ccc(-c3ccccc3C(F)(F)F)cc2)cc1 [F1, reference compound], the “Potency-based LXRα selectivity over LXRβ” value (LXRα; Gal4 reporter gene assays) was 7 fold, the EC50 (LXRα; U2OS cells, Gal4-LXRα LBD, value (SD, n), read-out: LXRα transactivation pEC50 (converted)) was 0.562 µM and the Emax (LXRα; U2OS, 40 h, maximal activation compared with a reference full agonist, value (SD, n), read-out: LXRα transactivation Agonist efficacy, %) was 84%. For the same compound, the “class of intestinal Abca1 induction” value (Abca1 mRNA in intestine) was “high ABCA1”, the ED50 (Abca1 mRNA in intestine; po, read-out: Abca1 mRNA induction in intestine Attributed class) was at most 11.3 µmol/kg and the ED50 (Abca1 mRNA in intestine; oral gavage daily for 4 days, C57BL/6 mice, (% RSE), read-out: Abca1 mRNA induction in intestine ED50) was under 30 µmol/kg. The “TG induction in plasma m (scaling factor)” value (plasma triglycerides; (% RSE)) was 12.1 (38), the “TG induction in plasma Attributed class” value (plasma triglycerides; mouse, in vivo) was “Lipogenic” and the “TG induction in plasma C2, drug concentration corresponding to a twofold increase in TG levels” value (plasma triglycerides; plasma concentration, (% RSE)) was 0.025 (72) μM. For the same compound, the Ki (LXRβ LBD) was 0.0363 µM.
